{"source": "patent US6599927B2", "about": "“Use of an H+, K+-ATPase inhibitor in the treatment of Widal's Syndrome” (AstraZeneca AB, priority 1996, dated 2003)", "test_system": "nasal polyps", "assay": "Two week treatment of nine patients with omeprazole, intranasal budesonide and oral deflazacort (Examples 2 to 10)", "type": "in vivo, human", "conditions": "two weeks, 20 mg omeprazole, 100 μg intranasal budesonide, 3 to 15 mg oral deflazacort", "description": "Nine patients, each with the conditions shown in the following Table 1, were treated during a two week period. The treatment consisted of 20 mg of omeprazole, 100 μg of intranasal budesonide and 3 to 15 mg of oral deflazacort (deflazacort was used in such a small quantity to ensure the patients' compliance).", "note": "“Also recorded” adds a separate entry of the source.", "data": [{"molecule": "COc1ccc2[nH]c([S+]([O-])Cc3ncc(C)c(OC)c3C)nc2c1", "note": "(stereo not drawn) [omeprazole]", "values": [{"measurement": "Result", "setting": "patient with Nasal Polyposis and aspirin intolerance (Example 9)", "result": "Positive effect"}, {"measurement": "Result", "setting": "patients with Nasal Polyposis (Examples 5-8)", "result": "Positive effect; also recorded: Long term benefit"}, {"measurement": "Result", "setting": "patients with Widal's Syndrome (Examples 2-4)", "result": "Temporary benefit; also recorded: Positive effect"}]}]}
